The results in this text go back to US12161647B2, “Treating hearing loss” (Massachusetts Eye and Ear Infirmary, priority 2012, dated 2024).

The structures appear in SMILES notation.

The subject of one experiment is noise-damaged cochlea. Put plainly: Hair cell number after systemic LY411575 in noise-damaged mice. It is filed as in vivo, mouse. The settings on record: oral 50 mg/kg for 5 d. On the procedure: (§1) 4-week-old mice were exposed free-field, awake and unrestrained, in a small reverberant chamber (22). Acoustic trauma was produced by a 2 h exposure to an 8-16 kHz octave band noise presented at 116 dB SPL. The exposure stimulus was generated by a custom white-noise source, filtered (Brickwall Filter with a 60 dB/octave slope), amplified (Crown power amplifier), and delivered (JBL compression driver) through an exponential horn fitted securely to a hole in the top of a reverberant box.
For systemic administration, LY411575 (50 mg/kg) dissolved in 0.5% (wt/vol) methylcellulose (WAKO) was injected orally once daily for 5 consecutive d. Hearing was measured by ABR at 1 d before, 2 d, 1, 2 week, 1, 2 and 3 months after noise exposure.
For collection of mature mouse cochleae, after being deeply anesthetized with ketamine and xylazine, the mice were transcardially perfused with 0.01 M phosphate buffer (pH 7.4) containing 8.6% sucrose, followed by fixative consisting of freshly depolymerized 4% paraformaldehyde in 0.1 M phosphate buffer (pH 7.4). […] Primary antibodies were detected with secondary antibodies conjugated with Alexa 488, 568, and 647 (Molecular Probes) and viewed by confocal fluorescence microscopy (TCS SP5, Leica). […]
Cell counting for spheres was performed with MetaMorph software. The cell number was determined from DAPI- or Hoechst-positive nuclei. […]

The test system of the next experiment is deafened ears. As to the kind of experiment: ABR and DPOAE in deafened ears after round window administration. It counts as in vivo, mouse. On the procedure:
as §1
4-week-old mice weighing 12 to 16 g were used. Before surgery, the animals were anesthetized with ketamine (20 mg/kg, i.p.) and xylazine (100 mg/kg, i.p.), and an incision was made posterior to the pinna near the external meatus after local administration of lidocaine (1%). The otic bulla was opened to approach the round window niche. The end of a piece of PE 10 tubing (Becton Dickinson) was drawn to a fine tip in a flame and gently inserted into the round window niche. LY411575 was dissolved in DMSO and diluted 10-fold in polyethylene glycol 400 (Sigma) to a final concentration of 4 mM. This solution (total volume 1 μl) was injected into the round window niche of the left ear. Polyethylene glycol 400 with 10% DMSO was injected into the right ear as a control. The solution was administered for 2 min. This approach is presently used clinically (e.g. transtympanic injection of steroids for sudden hearing loss and gentamicin for severe balance disorders) and has the advantage of sparing the […] but still taking advantage of the local route provided by the round window membrane for delivery of drug into the inner ear (50). Gelatin was placed on the niche to maintain the solution, and the wound was closed.
Auditory brain stem responses (51, 52) were measured in each animal at 7 log-spaced frequencies (half-octave steps from 5.6 to 45.2 kHz) before and 1 d after noise exposure, and 1-week, 1-month, and 3-months after surgery. Mice were anesthetized with ketamine (100 mg/kg i.p.) and xylazine (20 mg/kg i.p.). Needle electrodes were inserted at vertex and pinna, with a ground near the tail. ABRs were evoked with 5-ms tone pips (0.5-ms rise-fall with a cos^2 onset envelope delivered at 35/s). The response was amplified, filtered and averaged in a LabVIEW-driven data-acquisition system. Sound level was raised in 5 dB steps from ≥10 dB below threshold <80 dB SPL. At each sound level, 1024 responses were averaged (with stimulus polarity alternated), using an “artifact reject,” whereby response waveforms were discarded when peak-to-peak response amplitude exceeded 15 μV. […] For amplitude versus level functions, the wave I peak was identified by visual inspection at each sound level and the peak-to-peak amplitude computed.

Consider `C[C@H](NC(=O)[C@@H](O)c1cc(F)cc(F)c1)C(=O)N[C@@H]1C(=O)N(C)c2ccccc2-c2ccccc21` [LY411575, N-2((2S)-2-(3,5-difluorophenyl)-2-hydroxyethanoyl)-N1-((7S)-5-methyl-6-oxo-6,7-dihydro-5H-dibenzo[b,d]azepin-7-yl)-l-alaninamide], for which, in the experiment with noise-damaged cochlea, the “outer hair cell numbers” value is listed as “increased”. In addition, the “ABR wave I amplitudes” value in the experiment on deafened ears (8, 11.33 and 16 kHz, 3 months) is “increased”. Moreover, the ABR threshold recoveries result in the experiment with deafened ears (8, 11.33 and 16 kHz, 3 months after treatment vs 1 d after noise) is given as “significantly greater than control”. The “sound level at which the ABR peak could first be detected” value in the experiment with deafened ears (8 kHz, 3 months after treatment, example mouse, control side 75 dB) is 65 dB. Besides, the “ABR threshold recoveries at high frequencies” value in the experiment with deafened ears (frequencies above 22.65 kHz, either ear) is on record as “No threshold recoveries”. For the same molecule, the “recoveries above the noise floor of DPOAE” value in the experiment with deafened ears (mouse, in vivo) is reported as “no recoveries”.
